Reference: US20230049952A1, “METHODS AND COMPOUNDS FOR RESTORING MUTANT P53 FUNCTION” (PMV Pharmaceuticals, Inc., priority 2020, published 2023)
Where “and” joins values, the source holds several entries; their conditions need not be identical. Equal values may be shown once.

Assay: Compound 2 and metabolites in rat plasma, 50 mg/kg PO QD×10
Assay type: in vivo
Conditions: for Average Concentration: rat plasma
Procedure: The proposed metabolite pathway was determined in vitro, and levels of potential metabolites were measured by LC/MS-MS in rat plasma remaining from the dose rising 10-day repeat dose study in rats. Six potential metabolites were quantified in the low (50 mg/kg) single dose rats. […] Rats were rotated between timepoints to form a composite PK curve. […] A 100 μL aliquot of the supernatant was transferred to the sample plate and mixed with 100 μL of water, then the plate was shaken at 800 rpm for 10 min. 0.5-2 μL supernatant was then injected into a Triple Quad 6500+ for LC-MS/MS analysis. The standard curve was generated at 1-3000 ng/mL for the compounds in rat plasma (EDTA-K2).
The male and female PK parameters were averaged together since there was <2-fold variation between the genders. All values deemed below the level of quantification (BLQ) were excluded from the PK parameters calculations.

[1] = Compound 2 50 mg/kg PO QD×1, 1 h, 50 mg/kg
[2] = Compound 2 50 mg/kg PO QD×1, 2 h, 50 mg/kg
[3] = Compound 2 50 mg/kg PO QD×1, 4 h, 50 mg/kg
[4] = Compound 2 50 mg/kg PO QD×1, 8 h, 50 mg/kg
[5] = Compound 2 50 mg/kg PO QD×1, 24 h
[6] = Compound 2 50 mg/kg PO QD×10, 1 h post tenth dose, 50 mg/kg
[7] = Compound 2 50 mg/kg PO QD×10, 2 h post tenth dose, 50 mg/kg
[8] = Compound 2 50 mg/kg PO QD×10, 4 h post tenth dose, 50 mg/kg
[9] = Compound 2 50 mg/kg PO QD×10, 8 h post tenth dose, 50 mg/kg
[10] = Compound 2 50 mg/kg PO QD×10, 24 h post tenth dose, 50 mg/kg
[11] = Compound 2 50 mg/kg PO QD×10, 48 h post tenth dose
[12] = Compound 2 50 mg/kg PO QD×10, 72 h post tenth dose
[13] = Compound 2 50 mg/kg PO QD×10, 96 h post tenth dose
[14] = Day 1, of Compound 2 AUC0-24, rat, 50 mg/kg PO
[15] = Day 1, rat, Compound 2 50 mg/kg PO
[16] = Day 10, of Compound 2 AUC0-last, rat, 50 mg/kg PO QD×10
[17] = Day 10, rat, Compound 2 50 mg/kg PO QD×10
[18] = Compound 2 50 mg/kg PO QD×1, 1 h
[19] = Compound 2 50 mg/kg PO QD×1, 2 h
[20] = Compound 2 50 mg/kg PO QD×1, 4 h
[21] = Compound 2 50 mg/kg PO QD×1, 8 h
[22] = Compound 2 50 mg/kg PO QD×10, 1 h post tenth dose
[23] = Compound 2 50 mg/kg PO QD×10, 2 h post tenth dose
[24] = Compound 2 50 mg/kg PO QD×10, 4 h post tenth dose
[25] = Compound 2 50 mg/kg PO QD×10, 8 h post tenth dose
[26] = Compound 2 50 mg/kg PO QD×10, 24 h post tenth dose
[27] = Compound 2 50 mg/kg PO QD×1, 24 h, 50 mg/kg
[28] = Compound 2 50 mg/kg PO QD×10, 48 h post tenth dose, 50 mg/kg
[29] = after single (first) 50 mg/kg PO dose of Compound 2
[30] = repeat 10 day administration of Compound 2, 50 mg/kg PO

| % of Parent [14] [%] | AUC0-24 [15] [ng·h/mL] | % of Parent [16] [%] | AUC0-last [17] [ng·h/mL] | Average Concentration [18] [ng/mL] | Average Concentration [19] [ng/mL] | Average Concentration [20] [ng/mL] | Average Concentration [21] [ng/mL] | Average Concentration [5] | Average Concentration [22] [ng/mL] | Average Concentration [23] [ng/mL] | Structure (SMILES) | calculated concentration in rat plasma (individual rats) [1] | calculated concentration in rat plasma (individual rats) [2] | calculated concentration in rat plasma (individual rats) [3] | calculated concentration in rat plasma (individual rats) [4] | calculated concentration in rat plasma (individual rats) [6] | calculated concentration in rat plasma (individual rats) [7] | calculated concentration in rat plasma (individual rats) [8] | calculated concentration in rat plasma (individual rats) [9] | calculated concentration in rat plasma (individual rats) [10] | further results |
| --- | --- | --- | --- | --- | --- | --- | --- | --- | --- | --- | --- | --- | --- | --- | --- | --- | --- | --- | --- | --- | --- |
| 0.0 | 16 | 0.0 | 28 | 1.37 | 2.20 | 2.15 | 2.50 | BLQ | 1.53 | 1.81 | CCn1c(C#CCNc2ccc(Cl)cc2)cc2cc(CNC3CCN(C)CC3)ccc21 [Compound 7, 1-(p-Chlorophenylamino)-3-{1-ethyl-5-[(1-methyl-4-piperidylamino)methyl]-1H-indol-2-yl}-2-propyne] | 1.44 ng/mL and 1.36 ng/mL and 1.19 ng/mL and 1.33 ng/mL and 1.49 ng/mL and 1.39 ng/mL | 4.12 ng/mL and 1.95 ng/mL and 1.67 ng/mL and 1.93 ng/mL and 1.81 ng/mL and 1.70 ng/mL | 2.46 ng/mL and 2.66 ng/mL and 2.27 ng/mL and 1.68 ng/mL and 1.81 ng/mL and 2.04 ng/mL | 3.52 ng/mL and 2.72 ng/mL and 2.19 ng/mL and 2.24 ng/mL and 2.20 ng/mL and 2.11 ng/mL | 1.25 ng/mL and 1.46 ng/mL and 1.42 ng/mL and 1.49 ng/mL and 1.92 ng/mL and 1.65 ng/mL | 1.81 ng/mL and 2.19 ng/mL and 1.99 ng/mL and 1.41 ng/mL and 1.79 ng/mL and 1.66 ng/mL | 2.46 ng/mL and 2.18 ng/mL and 2.20 ng/mL and 2.42 ng/mL and 2.00 ng/mL and 1.30 ng/mL | 2.31 ng/mL and 2.45 ng/mL and 2.79 ng/mL and 1.81 ng/mL and 2.20 ng/mL and 2.21 ng/mL | BLQ (3×) and 1.07 ng/mL and 1.06 ng/mL and 1.16 ng/mL | calculated concentration in rat plasma (individual rats) [5]: BLQ; calculated concentration in rat plasma (individual rats) [11]: BLQ; calculated concentration in rat plasma (individual rats) [12]: BLQ; calculated concentration in rat plasma (individual rats) [13]: BLQ; Average Concentration [24]: 2.09 ng/mL; Average Concentration [25]: 2.30 ng/mL; Average Concentration [26]: 1.10 ng/mL; Average Concentration [11]: BLQ; Average Concentration [12]: BLQ; Average Concentration [13]: BLQ |
| 17.6 | 13840 | 18.1 | 19943 | 461.83 | 682.50 | 845.83 | 817.33 | 205.50 ng/mL | 596.00 | 637.50 | CCn1c(C#CCNc2ccc(F)cc2)cc2cc(CNC)ccc21 [Compound 5, 3-{1-Ethyl-5-[(methylamino)methyl]-1H-indol-2-yl}-1-(p-fluorophenylamino)-2-propyne] | 576 ng/mL and 407 ng/mL and 342 ng/mL and 649 ng/mL and 486 ng/mL and 311 ng/mL | 1050 ng/mL and 561 ng/mL and 617 ng/mL and 665 ng/mL and 630 ng/mL and 572 ng/mL | 732 ng/mL and 850 ng/mL and 1120 ng/mL and 738 ng/mL and 774 ng/mL and 861 ng/mL | 941 ng/mL and 742 ng/mL and 901 ng/mL and 752 ng/mL and 872 ng/mL and 696 ng/mL | 532 ng/mL and 434 ng/mL and 580 ng/mL and 539 ng/mL and 753 ng/mL and 738 ng/mL | 513 ng/mL and 639 ng/mL and 761 ng/mL and 625 ng/mL and 671 ng/mL and 616 ng/mL | 789 ng/mL and 675 ng/mL and 859 ng/mL and 1010 ng/mL and 887 ng/mL and 701 ng/mL | 619 ng/mL and 737 ng/mL and 807 ng/mL and 812 ng/mL and 881 ng/mL and 772 ng/mL | 216 ng/mL and 376 ng/mL and 234 ng/mL and 486 ng/mL and 477 ng/mL and 484 ng/mL | calculated concentration in rat plasma (individual rats) [27]: 218 ng/mL and 144 ng/mL and 208 ng/mL and 266 ng/mL and 246 ng/mL and 151 ng/mL; calculated concentration in rat plasma (individual rats) [28]: 6.57 ng/mL and 22.4 ng/mL and 13.6 ng/mL and 55.0 ng/mL and 27.3 ng/mL and 31.2 ng/mL; calculated concentration in rat plasma (individual rats) (Compound 2 50 mg/kg PO QD×10, 72 h post tenth dose, 50 mg/kg): 3.25 ng/mL and 2.30 ng/mL and BLQ (3×) and 17.3 ng/mL; calculated concentration in rat plasma (individual rats) (Compound 2 50 mg/kg PO QD×10, 96 h post tenth dose, 50 mg/kg): BLQ (5×) and 1.27 ng/mL; AUC0-24 [29]: 13,840 ng·h/mL; percent of the parent Compound 2 AUC0-24 [29]: 17.6%; Average Concentration [24]: 820.17 ng/mL; Average Concentration [25]: 771.33 ng/mL; Average Concentration [26]: 378.83 ng/mL; Average Concentration [11]: 26.01 ng/mL; Average Concentration [12]: 7.62 ng/mL; Average Concentration [13]: 1.27 ng/mL; AUC0-last [30]: 19,943 ng·h/mL; percent of parent AUC0-last [30]: 18.1% |
|  |  |  |  |  |  |  |  |  |  |  | CCn1c(C#CCNc2ccc(F)cc2)cc2cc(CNC3CCOCC3)ccc21 [Compound 6, 3-{1-Ethyl-5-[(tetrahydro-2H-pyran-4-ylmino)methyl]-1H-indol-2-yl}-1-(p-fluorophenylamino)-2-propyne] |  |  |  |  |  |  |  |  |  | AUC0-24 (rat, in vivo, po, 50 mg/kg): 377 ng·h/mL; AUC0-last (rat, in vivo, po, 50 mg/kg): 389 ng·h/mL |
| 1.6 | 1241 | 1.5 | 1620 | 41.55 | 64.98 | 74.85 | 73.43 | 17.88 ng/mL | 51.07 | 53.88 | CCn1c(C#CCNc2ccccc2)cc2cc(CNCc3ccccc3)ccc21 [Compound 4, 1-Anilino-3-[5-(benzylaminomethyl)-1-ethyl-1H-indol-2-yl]-2-propyne] | 52.4 ng/mL and 34.7 ng/mL and 28.5 ng/mL and 58.3 ng/mL and 44.0 ng/mL and 31.4 ng/mL | 98.8 ng/mL and 56.5 ng/mL and 57.4 ng/mL and 65.7 ng/mL and 58.2 ng/mL and 53.3 ng/mL | 72.2 ng/mL and 73.2 ng/mL and 96.5 ng/mL and 63.9 ng/mL and 69.0 ng/mL and 74.3 ng/mL | 86.8 ng/mL and 66.7 ng/mL and 79.4 ng/mL and 71.8 ng/mL and 72.4 ng/mL and 63.5 ng/mL | 48.8 ng/mL and 34.5 ng/mL and 45.1 ng/mL and 46.0 ng/mL and 64.9 ng/mL and 67.1 ng/mL | 42.8 ng/mL and 51.0 ng/mL and 62.7 ng/mL and 54.2 ng/mL and 59.7 ng/mL and 52.9 ng/mL | 66.1 ng/mL and 54.7 ng/mL and 73.4 ng/mL and 93.1 ng/mL and 83.9 ng/mL and 58.7 ng/mL | 53.2 ng/mL and 61.4 ng/mL and 69.2 ng/mL and 67.5 ng/mL and 73.1 ng/mL and 65.4 ng/mL | 17.1 ng/mL and 29.4 ng/mL and 19.7 ng/mL and 38.9 ng/mL and 40.7 ng/mL and 40.1 ng/mL | calculated concentration in rat plasma (individual rats) [27]: 17.9 ng/mL and 11.4 ng/mL and 18.4 ng/mL and 24.0 ng/mL and 22.5 ng/mL and 13.1 ng/mL; calculated concentration in rat plasma (individual rats) [28]: BLQ and 1.97 ng/mL and 1.33 ng/mL and 4.63 ng/mL and 2.28 ng/mL and 2.67 ng/mL; calculated concentration in rat plasma (individual rats) [12]: BLQ; calculated concentration in rat plasma (individual rats) [13]: BLQ; Average Concentration [24]: 71.65 ng/mL; Average Concentration [25]: 64.97 ng/mL; Average Concentration [26]: 30.98 ng/mL; Average Concentration [11]: 2.58 ng/mL; Average Concentration [12]: BLQ; Average Concentration [13]: BLQ |
